Source: US11485745B2, “Amido spirocyclic amide and sulfonamide derivatives” (Valo Health, Inc., priority 2012, dated 2022)

System: A2780 cells
Assay: In-Vitro Cell Proliferation Assay (A2780, sulforhodamine B, 72 hours)
Assay type: cell-based
Details: SRB

Row | IC50 (Homo sapiens, A2780, 72 h) [nM] | IC50 [nM] | Structure (SMILES)
1 | 13.7 | – | CN(C)Cc1ccc(C(=O)N2CCC3(CC2)CC3CNC(=O)c2cc3ccncc3o2)cc1 (stereo not drawn) [Example 71, N-[[6-[4-[(dimethylamino)methyl]benzoyl]-6-azaspiro[2.5]octan-2-yl]methyl]furo[2,3-c]pyridine-2-carboxamide]
2 | 55.4 | – | CC(C)(C)CS(=O)(=O)N1CCC2(CC1)CC2CNC(=O)N1Cc2ccncc2C1 (stereo not drawn) [Example 381, N-[[6-(2,2-dimethylpropylsulfonyl)-6-azaspiro[2.5]octan-2-yl]methyl]-1,3-dihydropyrrolo[3,4-c]pyridine-2-carboxamide]
3 | 50.9 | – | CC(C)(O)CCC(=O)N1CCC2(CC1)CC2CNC(=O)N1Cc2ccncc2C1 (stereo not drawn) [Example 360, N-[[6-(4-hydroxy-4-methyl-pentanoyl)-6-azaspiro[2.5]octan-2-yl]methyl]-1,3-dihydropyrrolo[3,4-c]pyridine-2-carboxamide]
4 | 2000 | – | CC(C)C(=O)N1CCC2(CC1)CC2CNC(=O)c1cc2cnccc2[nH]1 (stereo not drawn) [Example 12]
5 | – | 7.03 | CC1(C)CC1C(=O)N1CCC2(CC1)CC2CNC(=O)c1cc2ccncc2o1 (stereo not drawn) [Example 373, N-[[6-(2,2-dimethylcyclopropanecarbonyl)-6-azaspiro[2.5]octan-2-yl]methyl]furo[2,3-c]pyridine-2-carboxamide]
6 | 2000 | – | CC(C)(O)COC(=O)N1CCC2(CC1)CC2CNC(=O)c1cc2cnccc2[nH]1 (stereo not drawn) [Example 401, (2-hydroxy-2-methyl-propyl) 2-[(1H-pyrrolo[3,2-c]pyridine-2-carbonylamino)methyl]-6-azaspiro[2.5]octane-6-carboxylate]
7 | 18.5 | – | CC(C)(O)COCC(=O)N1CCC2(CC1)CC2CNC(=O)N1Cc2ccncc2C1 (stereo not drawn) [Example 393, N-[[6-[2-(2-hydroxy-2-methyl-propoxy)acetyl]-6-azaspiro[2.5]octan-2-yl]methyl]-1,3-dihydropyrrolo[3,4-c]pyridine-2-carboxamide]
8 | 9.61 | – | O=C(CCC1CCCCC1)N1CCC2(CC1)CC2CNC(=O)N1Cc2ccncc2C1 (stereo not drawn) [Example 197, N-[[6-(3-cyclohexylpropanoyl)-6-azaspiro[2.5]octan-2-yl]methyl]-1,3-dihydropyrrolo[3,4-c]pyridine-2-carboxamide]
9 | 203 | – | O=C(CCc1cccnc1)N1CCC2(CC1)CC2CNC(=O)N1Cc2ccncc2C1 (stereo not drawn) [Example 209, N-[[6-[3-(3-pyridyl)propanoyl]-6-azaspiro[2.5]octan-2-yl]methyl]-1,3-dihydropyrrolo[3,4-c]pyridine-2-carboxamide]
10 | 2000 | – | CCS(=O)(=O)N1CCC2(CC1)CC2CNC(=O)c1cc2cnccc2[nH]1 (stereo not drawn) [Example 14, N-[(8-ethylsulfonyl-8-azasprio[2.5]octan-2-yl)methyl]-1H-pyrrolo[3,2-c]pyridine-2-carboxamide]
11 | 2000 | – | CCC(=O)N1CCC2(CC1)CC2CNC(=O)c1cc2cnccc2[nH]1 (stereo not drawn) [Example 20]
12 | 184 | – | O=C(CCc1ccccc1)N1CCC2(CC1)CC2CNC(=O)N1Cc2ccncc2C1 (stereo not drawn) [Example 199, N-[[6-(3-phenylpropanoyl)-6-azaspiro[2.5]octan-2-yl]methyl]-1,3-dihydropyrrolo[3,4-c]pyridine-2-carboxamide]
13 | 1.59 | – | CC1(C)CC1C(=O)N1CCC2(CC1)CC2CNC(=O)N1Cc2ccncc2C1 (stereo not drawn) [Example 377, N-[[6-(2,2-dimethylcyclopropanecarbonyl)-6-azaspiro[2.5]octan-2-yl]methyl]-1,3-dihydropyrrolo[3,4-c]pyridine-2-carboxamide]
14 | 2000 | – | CC(C)(C)CS(=O)(=O)N1CCC2(CC1)CC2CNC(=O)c1cc2ccncc2[nH]1 (stereo not drawn) [Example 379, N-[[6-(2,2-dimethylpropylsulfonyl)-6-azaspiro[2.5]octan-2-yl]methyl]-1H-pyrrolo[3,2-c]pyridine-2-caarboxamide]
15 | 17.5 | – | O=C(NCC1CC12CCN(C(=O)c1cc(C(F)(F)F)[nH]n1)CC2)N1Cc2ccncc2C1 (stereo not drawn) [Example 396, N-[[6-[5-(trifluoromethyl)-1H-pyrazole-3-carbonyl]-6-azaspiro[2.5]octan-2-yl]methyl]-1,3-dihydropyrrolo[3,4-c]pyridine-2-carboxamdie]
